In patent publication US20140011867A1, “EFFECT OF BORRELIDIN FOR CONTROLLING SOYBEAN PHYTOPHTHORA ROOT ROT” (ZHEJIANG HISUN PHARMACEUTICAL CO., LTD., priority 2011, published 2014):
In brackets after ≈: the same amount, converted by molar mass. Like-named read-outs stand apart in the source and are kept apart here.

System: Phytophthora sajae Kaufmann & Gerdeman
Test: Mycelial growth inhibition assay (growth rate method)
Type: cell-based
Design: IC50 as fraction of that of metalaxyl: unit not given beside the values
Description: Growth rate method was used in the assays. […] Phytophthora sajae Kaufmann & Gerdeman cultures after 7 days of culture were punched using a sterile punch (Ø0.5cm) and put on standby, and the cultures were later transferred onto […] (CA) plate culture media and placed at a temperature of 27±1° C., and colony diameters were measured after 7 days of culture.

[1] = mycelial growth, CA plate, 27±1° C., colony diameter after 7 days
[2] = mycelial growth inhibition assay

Row | Compound | IC50 (Phytophthora, 168 h, mycelial growth, CA plate, 27±1° C., colony diameter after 7 days, read-out: IC50) [µg/mL] | IC95 [1] [µg/mL] | IC50 as fraction of that of metalaxyl [2] | IC95 as fraction of that of metalaxyl [2] | IC50 (mycelial growth inhibition assay, unit inferred) [µg/mL] | IC95 (mycelial growth inhibition assay, unit not given)
1 | COCC(=O)N(c1c(C)cccc1C)C(C)C(=O)OC (stereo not shown) [Metalaxyl, reference compound] | 0.35 (≈ 1.25 µM) | 6.85 (≈ 24.5 µM) |  |  |  | 
2 | Borrelidin |  | 0.026 | 1/62 | 1/263 | 0.0056 | 0.026
